Assay results reported in ChEMBL document CHEMBL5344409, “Discovery of pan-IAP degraders via a CRBN recruiting mechanism” (2023).
Active and inactive are the calls of the source. No cut-off for these calls is given here.

Assays:
[1] = target: Baculoviral IAP repeat-containing protein 2 (Homo sapiens) (UniProt Q13490); assay: Induction of cIAP1 degradation in human MCF7 cells at 0.1 uM measured within 1 hr by western blot analysis; assay type: cell-based
[2] = target: Protein cereblon/E3 ubiquitin-protein ligase XIAP (Homo sapiens) (UniProt P98170+Q96SW2); assay: PROTAC activity at CRBN/XIAP in human MCF7 cells assessed as protein abundance at 1 uM measured after 4 hrs by TMT-labeling based LC-MS/MS analysis; assay type: cell-based
Protein cereblon/E3 ubiquitin-protein ligase XIAP (Homo sapiens), sequence (P98170 whole entry, looked up): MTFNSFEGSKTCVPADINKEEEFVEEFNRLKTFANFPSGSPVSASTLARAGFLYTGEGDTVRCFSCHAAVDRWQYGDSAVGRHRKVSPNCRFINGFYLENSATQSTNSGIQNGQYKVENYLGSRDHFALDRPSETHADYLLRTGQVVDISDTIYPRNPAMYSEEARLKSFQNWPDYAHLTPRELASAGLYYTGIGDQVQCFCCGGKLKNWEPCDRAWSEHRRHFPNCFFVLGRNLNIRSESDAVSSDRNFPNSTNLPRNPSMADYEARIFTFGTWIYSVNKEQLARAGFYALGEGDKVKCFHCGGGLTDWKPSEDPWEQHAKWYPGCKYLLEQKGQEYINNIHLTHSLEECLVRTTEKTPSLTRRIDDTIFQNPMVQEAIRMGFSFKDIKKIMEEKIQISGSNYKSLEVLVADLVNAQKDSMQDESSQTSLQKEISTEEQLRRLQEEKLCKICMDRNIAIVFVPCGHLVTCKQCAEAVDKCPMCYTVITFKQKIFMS
Protein cereblon/E3 ubiquitin-protein ligase XIAP (Homo sapiens), sequence (Q96SW2 whole entry, looked up): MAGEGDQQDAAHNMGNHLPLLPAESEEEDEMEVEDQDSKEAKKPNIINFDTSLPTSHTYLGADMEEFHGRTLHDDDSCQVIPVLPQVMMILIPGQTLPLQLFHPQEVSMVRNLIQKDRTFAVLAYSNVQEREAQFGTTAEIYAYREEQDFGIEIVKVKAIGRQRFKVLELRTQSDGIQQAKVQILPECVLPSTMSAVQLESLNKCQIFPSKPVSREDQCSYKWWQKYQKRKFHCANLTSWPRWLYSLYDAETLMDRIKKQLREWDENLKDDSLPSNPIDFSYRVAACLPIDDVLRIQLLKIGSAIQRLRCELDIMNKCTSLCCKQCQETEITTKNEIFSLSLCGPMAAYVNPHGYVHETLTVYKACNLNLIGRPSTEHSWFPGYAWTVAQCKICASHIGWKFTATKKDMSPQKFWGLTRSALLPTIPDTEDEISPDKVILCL

MCF7 [3] = assay: Inhibition of TNFalpha-induced cytokine mRNA expression in human MCF7 cells assessed as decrease in IL-6 mRNA level by quantitative real-time PCR analysis; assay type: functional, cell-based
[4] = target: T1, Protein cereblon/Baculoviral IAP repeat-containing protein 3 (Homo sapiens) (UniProt Q13489+Q96SW2); assay: PROTAC activity at CRBN/cIAP2 in human MCF7 cells at 1 uM measured after 4 hrs by TMT-labeling based LC-MS/MS analysis; assay type: cell-based
T1 sequence (Q13489 whole entry, looked up): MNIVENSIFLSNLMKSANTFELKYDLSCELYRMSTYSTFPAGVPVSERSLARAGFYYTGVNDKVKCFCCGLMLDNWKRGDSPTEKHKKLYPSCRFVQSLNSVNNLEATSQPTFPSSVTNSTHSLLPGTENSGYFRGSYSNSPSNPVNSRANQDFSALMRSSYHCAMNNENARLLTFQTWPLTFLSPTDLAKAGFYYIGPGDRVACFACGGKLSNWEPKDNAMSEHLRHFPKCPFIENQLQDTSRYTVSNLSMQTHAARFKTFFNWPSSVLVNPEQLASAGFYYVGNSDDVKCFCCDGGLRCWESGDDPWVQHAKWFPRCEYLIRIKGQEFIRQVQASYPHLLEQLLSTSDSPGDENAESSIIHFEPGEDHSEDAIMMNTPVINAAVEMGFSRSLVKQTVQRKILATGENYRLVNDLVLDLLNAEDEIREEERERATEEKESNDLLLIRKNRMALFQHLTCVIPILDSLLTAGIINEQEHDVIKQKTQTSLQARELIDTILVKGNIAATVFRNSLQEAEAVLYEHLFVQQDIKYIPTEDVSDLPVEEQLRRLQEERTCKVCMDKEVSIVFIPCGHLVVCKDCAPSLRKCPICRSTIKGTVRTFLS
T1 sequence (Q96SW2 whole entry, looked up): as the sequence (Q96SW2 whole entry, looked up) above

MCF7 [5] = assay: Induction of apoptosis in human MCF7 cells assessed as increase in total apoptotic cells at 1 uM measured after 48 hrs by AnnexinV-FITC/PI staining based flow cytometry; assay type: functional
MCF7 [6] = assay: Inhibition of TNFalpha-induced cytokine mRNA expression in human MCF7 cells assessed as decrease in TNF-alpha mRNA level by quantitative real-time PCR analysis; assay type: functional, cell-based
MDA-MB-231 = assay: Inhibition of TNFalpha-induced cell migration in human MDA-MB-231 cells at 0.1 uM measured after 24 hrs in presence of TNFalpha by transwell assay; assay type: functional, cell-based
[7] = target: Baculoviral IAP repeat-containing protein 3 (Homo sapiens) (UniProt Q13489); assay: Induction of […] degradation in human MCF7 cells transfected with CRBN siRNA at 0.01 to 1 uM measured after 18 hrs by western blot analysis; assay type: cell-based; conditions: dose 0.01-1 µM
Baculoviral IAP repeat-containing protein 3 (Homo sapiens), sequence (Q13489 whole entry): as the sequence (Q13489 whole entry, looked up) above

[8] = target: T1, Protein cereblon/Baculoviral IAP repeat-containing protein 3 (Homo sapiens); assay: PROTAC activity at CRBN/cIAP2 in human MCF7 cells assessed as induction of cIAP2 degradation at 1 uM measured after 6 hrs in presence of proteasome inhibitor, MG132 by western blot analysis; assay type: cell-based
MCF7 [9] = assay: Induction of apoptosis in human MCF7 cells assessed as increase in PARP cleavage at 1 uM measured after 6 hrs in presence of TNF-alpha by western blot analysis; assay type: functional, cell-based
[10] = target: Protein cereblon (Homo sapiens) (UniProt Q96SW2); assay: Induction of CRBN degradation in human MCF7 cells by western blot analysis; assay type: cell-based
Protein cereblon (Homo sapiens), sequence (Q96SW2 whole entry): as the sequence (Q96SW2 whole entry, looked up) above

[11] = target: Baculoviral IAP repeat-containing protein 2 (Homo sapiens) (UniProt Q13490); assay: Induction of cIAP1 degradation in human MCF7 cells at 1 uM measured after 6 hrs in presence of proteasome inhibitor, MG132 by western blot analysis; assay type: cell-based
[12] = target: T1, Protein cereblon/Baculoviral IAP repeat-containing protein 3 (Homo sapiens); assay: PROTAC activity at CRBN/cIAP2 in human MCF7 cells assessed as induction of cIAP2 degradation at 0.1 uM measured within 1 hr by western blot analysis; assay type: cell-based
MCF7 [13] = assay: Induction of apoptosis in human MCF7 cells assessed as increase in PARP cleavage at 0.1 uM measured after 18 hrs by western blot analysis; assay type: functional, cell-based
[14] = target: E3 ubiquitin-protein ligase XIAP (Homo sapiens) (UniProt P98170); assay: Induction of XIAP degradation in human MCF7 cells transfected with CRBN siRNA at 0.01 to 1 uM measured after 18 hrs by western blot analysis; assay type: cell-based; conditions: dose 0.01-1 µM
E3 ubiquitin-protein ligase XIAP (Homo sapiens), sequence (P98170 whole entry): as the sequence (P98170 whole entry, looked up) above

Baculoviral IAP repeat-containing protein 2 (Homo sapiens), sequence (Q13490 whole entry): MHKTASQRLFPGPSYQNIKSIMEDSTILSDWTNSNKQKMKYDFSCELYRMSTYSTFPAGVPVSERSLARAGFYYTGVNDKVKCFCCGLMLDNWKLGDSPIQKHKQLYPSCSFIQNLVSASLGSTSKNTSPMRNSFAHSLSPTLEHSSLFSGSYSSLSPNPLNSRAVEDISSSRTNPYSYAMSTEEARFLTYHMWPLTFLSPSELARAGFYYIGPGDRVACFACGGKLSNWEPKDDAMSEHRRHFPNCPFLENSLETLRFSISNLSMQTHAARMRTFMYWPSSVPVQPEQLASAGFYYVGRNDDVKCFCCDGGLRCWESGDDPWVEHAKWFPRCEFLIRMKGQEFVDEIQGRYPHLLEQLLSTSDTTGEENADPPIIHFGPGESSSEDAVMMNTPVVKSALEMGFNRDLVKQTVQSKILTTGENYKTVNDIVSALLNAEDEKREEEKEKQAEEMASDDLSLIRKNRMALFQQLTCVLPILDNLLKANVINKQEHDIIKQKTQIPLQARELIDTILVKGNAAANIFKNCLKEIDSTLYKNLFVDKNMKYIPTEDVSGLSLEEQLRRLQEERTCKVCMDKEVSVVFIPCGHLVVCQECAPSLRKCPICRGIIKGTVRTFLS

Activity [1]: > 90%
fold change (FC) [2]: > 2
Activity [4]: Active
Activity [7]: inactive
Activity [8]: inactive
Activity [10]: inactive
Activity [11]: inactive
Activity [12]: > 90%
Activity [14]: inactive
SMILES: CN[C@@H](C)C(=O)N[C@H](C(=O)N1Cc2cc(OCCCCCCCCNC(=O)C3CN(c4ccc5c(c4)C(=O)N(C4CCC(=O)NC4=O)C5=O)C3)ccc2C[C@H]1C(=O)N[C@@H]1CCCc2ccccc21)C(C)(C)C (stereo not given in full)
inhibition (MCF7 [3]): Active
Activity (MCF7 [5]): 46%
inhibition (MCF7 [6]): Active
inhibition (MDA-MB-231): Active
Activity (MCF7 [9]): Active
Activity (MCF7 [13]): Active
